Type in all cases: functional
The nature of assay [1]: Antimigratory activity against mouse MTV/TM-011 cells assessed as wound closure measured after 24 hrs by optical microscopic analysis relative to control. Also on record: concentration or dose not given beside the values.
A further assay has as its system Escherichia coli. The assay can be described thus: Antibacterial activity against Escherichia coli measured after 12 hrs.
A further assay concerns Acinetobacter baumannii. The assay can be described thus: Antibacterial activity against Acinetobacter baumannii measured after 12 hrs.
In another assay the test system is Bacillus subtilis. The assay can be described thus: Antibacterial activity against Bacillus subtilis measured after 12 hrs.
The subject of the next assay is Staphylococcus aureus. The assay can be described thus: Antibacterial activity against methicillin-resistant Staphylococcus aureus measured after 12 hrs.
Another assay has as its system Saccharomyces cerevisiae. The assay can be described thus: Antifungal activity against Saccharomyces cerevisiae measured after 24 hrs.
A short description of assay [2]: Antimigratory activity against mouse MTV/TM-011 cells assessed as wound closure at 20 uM measured after 24 hrs by optical microscopic analysis relative to control.

Residues, ends and D or L forms follow the SMILES beside them. *: point of attachment. Boc = CC(C)(C)OC(=O)*

Consider `CC(C)(O)c1ncc(Cc2ccccc2)[nH]c1=O`, for which the Activity in assay [1] was determined as 70%. Further, the MIC against Escherichia coli, against Acinetobacter baumannii, against Bacillus subtilis, against Staphylococcus aureus and in the assay on Saccharomyces cerevisiae was greater than 100 µM each time.

Take `CC(C)c1ncc(Cc2ccc(O)cc2)[nH]c1=O`: the Activity in assay [1] is on record as 65%. Also, the MIC in the assay on Escherichia coli, in the assay on Acinetobacter baumannii, in the assay on Bacillus subtilis, against Staphylococcus aureus and in the assay on Saccharomyces cerevisiae was greater than 100 µM throughout.

On to `CC(C)(O)c1ncc(Cc2ccc(O)cc2)[nH]c1=O`, for which the Activity in assay [1] is 65%. The minimum inhibitory concentration (MIC) in the assay with Escherichia coli, with Acinetobacter baumannii, in the assay with Bacillus subtilis, with Staphylococcus aureus and against Saccharomyces cerevisiae was greater than 100 µM each time.

Take `CC(C)c1ncc(Cc2ccccc2)nc1O`: in assay [1], the Activity was 72%. For the same molecule, the MIC against Escherichia coli, in the assay on Acinetobacter baumannii, in the assay with Bacillus subtilis, in the assay on Staphylococcus aureus and in the assay with Saccharomyces cerevisiae was greater than 100 µM in each case.

As to `CC(C)[C@H](NC(=O)OC(C)(C)C)C(=O)N[C@H](C=O)Cc1ccccc1` (Boc-Val-Phe-aldehyde), the Activity in assay [2] stood at 65%. Moreover, the MIC in the assay with Escherichia coli, against Acinetobacter baumannii, against Bacillus subtilis, with Staphylococcus aureus and against Saccharomyces cerevisiae was greater than 100 µM throughout.

As to `O=c1[nH]cc(F)c(=O)[nH]1` [FLUOROURACIL], the Activity in assay [1] is reported as 65%.

Turning to `COC(C)(C)c1ncc(Cc2ccc(O)cc2)[nH]c1=O`, the Activity in assay [1] is on record as 65%. The minimum inhibitory concentration (MIC) against Escherichia coli, in the assay with Acinetobacter baumannii, against Bacillus subtilis, against Staphylococcus aureus and against Saccharomyces cerevisiae was greater than 100 µM throughout.

`CC(C)Cc1cnc(C(C)C)c(=O)[nH]1`: the Activity in assay [1] is on record as 65%. Besides, the MIC against Escherichia coli, against Acinetobacter baumannii, with Bacillus subtilis, against Staphylococcus aureus and in the assay on Saccharomyces cerevisiae was greater than 100 µM throughout.

On to `COC(C)(C)c1ncc(Cc2ccccc2)[nH]c1=O`, for which, in assay [1], the Activity is 65%. The MIC in the assay with Escherichia coli, in the assay on Acinetobacter baumannii, in the assay with Bacillus subtilis, with Staphylococcus aureus and with Saccharomyces cerevisiae was greater than 100 µM each time.

Source of the values: ChEMBL document CHEMBL5576090, “Structural Diversification of Pyrazinone Metabolites via Spontaneous Oxa-Michael Addition in Staphylococcus xylosus” (2024).
